# Test results as given in ChEMBL document CHEMBL3407472, “Multi-parameter optimization of aza-follow-ups to BI 207524, a thumb pocket 1 HCV NS5B polymerase inhibitor. Part 2: Impact of lipophilicity on promiscuity and in vivo toxicity” (Bioorg Med Chem Lett, 2015).
# System: not listed separately
# Assay: Half life in dog at 5 mg/kg, po and 2 mg/kg, iv
# Assay type: ADME, organism-based, Canis lupus familiaris
# Conditions: in vivo
row,Compound,half-life
1,CCOc1nc(NC(=O)C2(NC(=O)c3ccc4c(C5CCCC5)c(-c5ccc(F)cn5)n(C)c4c3)CCC2)ccc1/C=C/C(=O)O,5.1 h

# System: not listed separately
# Assay: Clearance in rat at 5 mg/kg, po and 2 mg/kg, iv
# Assay type: ADME, organism-based
# Conditions: in vivo
row,Compound,clearance
1,CCOc1nc(NC(=O)C2(NC(=O)c3ccc4c(C5CCCC5)c(-c5ccc(F)cn5)n(C)c4c3)CCC2)ccc1/C=C/C(=O)O,4.9 mL/min/kg

# System: not listed separately
# Assay: Clearance in dog at 5 mg/kg, po and 2 mg/kg, iv
# Assay type: ADME, organism-based, Canis lupus familiaris
# Conditions: in vivo
row,Compound,clearance
1,CCOc1nc(NC(=O)C2(NC(=O)c3ccc4c(C5CCCC5)c(-c5ccc(F)cn5)n(C)c4c3)CCC2)ccc1/C=C/C(=O)O,1.9 mL/min/kg

# System: not listed separately
# Assay: Cmax in rat at 2 mg/kg, po each in 0.5% Methylcellulose and 0.3% Tween-80 and 1% N-methylpyrrolidone
# Assay type: ADME, organism-based
# Design: dose 2 mg/kg, route oral
# Conditions: in vivo
row,Compound,Cmax
1,CCOc1nc(NC(=O)C(C)(C)NC(=O)c2ccc3c(C4CCCC4)c(-c4ncc(Cl)cn4)n(C)c3c2)cnc1/C=C/C(=O)O,900 nM
2,CCOc1nc(NC(=O)C(C)(C)NC(=O)c2ccc3c(C4CCCC4)c(-c4ccc(Cl)cn4)n(C)c3c2)cnc1/C=C/C(=O)O,660 nM

# System: not listed separately
# Assay: AUC in rat at 5 mg/kg, po and 2 mg/kg, iv
# Assay type: ADME, organism-based
# Conditions: plasma
row,Compound,AUC
1,CCOc1nc(NC(=O)C2(NC(=O)c3ccc4c(C5CCCC5)c(-c5ccc(F)cn5)n(C)c4c3)CCC2)ccc1/C=C/C(=O)O,11 µM·h

# System: not listed separately
# Assay: Volume of distribution at steady state in rat at 5 mg/kg, po and 2 mg/kg, iv
# Assay type: ADME, organism-based
# Conditions: in vivo, read-out: Vdss
row,Compound,Vd
1,CCOc1nc(NC(=O)C2(NC(=O)c3ccc4c(C5CCCC5)c(-c5ccc(F)cn5)n(C)c4c3)CCC2)ccc1/C=C/C(=O)O,0.44 L/kg

# System: not listed separately
# Assay: Half life in dog liver microsomes at 2 uM
# Assay type: ADME, Canis lupus familiaris
# Conditions: not given
row,Compound,half-life at 2 µM
1,CCOc1nc(NC(=O)C2(NC(=O)c3ccc4c(C5CCCC5)c(-c5ccc(F)cn5)n(C)c4c3)CCC2)ccc1/C=C/C(=O)O,2.52 h

# System: Hepatitis C virus
# Assay: Antiviral activity against Hepatitis C virus genotype 1b infected in human Huh cells assessed as inhibition of viral replication by RT-PCR-based replicon assay
# Assay type: functional, cell-based, Hepacivirus hominis
# Conditions: not given
row,Compound,EC50
1,CCOc1nc(NC(=O)C2(NC(=O)c3ccc4c(C5CCCC5)c(-c5ccc(F)cn5)n(C)c4c3)CCC2)ccc1/C=C/C(=O)O,10 nM
2,CCOc1nc(NC(=O)C(C)(C)NC(=O)c2ccc3c(C4CCCC4)c(-c4ncc(Cl)cn4)n(C)c3c2)cnc1/C=C/C(=O)O,12 nM
3,CCOc1nc(NC(=O)C(C)(C)NC(=O)c2ccc3c(C4CCCC4)c(-c4ccc(Cl)cn4)n(C)c3c2)cnc1/C=C/C(=O)O,6 nM

# System: not listed separately
# Assay: Volume of distribution at steady state in dog at 5 mg/kg, po and 2 mg/kg, iv
# Assay type: ADME, organism-based, Canis lupus familiaris
# Conditions: in vivo, read-out: Vdss
row,Compound,Vd
1,CCOc1nc(NC(=O)C2(NC(=O)c3ccc4c(C5CCCC5)c(-c5ccc(F)cn5)n(C)c4c3)CCC2)ccc1/C=C/C(=O)O,0.36 L/kg

# System: not listed separately
# Assay: Ratio of drug uptake in liver to plasma of rat at 5 mg/kg, po and 2 mg/kg, iv after 6 to 8 hrs
# Assay type: ADME, organism-based
# Conditions: not given
row,Compound,Kp
1,CCOc1nc(NC(=O)C2(NC(=O)c3ccc4c(C5CCCC5)c(-c5ccc(F)cn5)n(C)c4c3)CCC2)ccc1/C=C/C(=O)O,6

# System: not listed separately
# Assay: Bioavailability in dog at 5 mg/kg, po and 2 mg/kg, iv
# Assay type: ADME, organism-based, Canis lupus familiaris
# Conditions: in vivo
row,Compound,bioavailability
1,CCOc1nc(NC(=O)C2(NC(=O)c3ccc4c(C5CCCC5)c(-c5ccc(F)cn5)n(C)c4c3)CCC2)ccc1/C=C/C(=O)O,61%

# Molecular target: 5-hydroxytryptamine receptor 2A (Homo sapiens, UniProt P28223)
# Sequence (P28223 whole entry): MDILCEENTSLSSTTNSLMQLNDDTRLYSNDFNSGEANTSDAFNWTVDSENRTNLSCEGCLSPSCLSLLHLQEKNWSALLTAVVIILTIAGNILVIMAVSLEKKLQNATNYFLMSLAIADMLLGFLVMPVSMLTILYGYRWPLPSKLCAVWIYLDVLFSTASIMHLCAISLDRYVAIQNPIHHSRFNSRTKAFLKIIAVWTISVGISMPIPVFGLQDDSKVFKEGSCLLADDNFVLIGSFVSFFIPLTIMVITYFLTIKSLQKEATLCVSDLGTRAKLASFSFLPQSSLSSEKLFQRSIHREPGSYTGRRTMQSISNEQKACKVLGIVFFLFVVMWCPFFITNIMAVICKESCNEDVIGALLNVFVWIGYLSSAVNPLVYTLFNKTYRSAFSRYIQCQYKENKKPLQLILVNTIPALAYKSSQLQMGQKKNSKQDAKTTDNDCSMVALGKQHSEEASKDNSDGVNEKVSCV
# Assay: Inhibition of serotonin 5-HT2A receptor (unknown origin)
# Conditions: not given
row,Compound,IC50
1,CCOc1nc(NC(=O)C(C)(C)NC(=O)c2ccc3c(C4CCCC4)c(-c4ncc(Cl)cn4)n(C)c3c2)cnc1/C=C/C(=O)O,5200 nM

# System: not listed separately
# Assay: Lipophilicity, log D of the compound at pH 7.4
# Assay type: physicochemical
# Conditions: buffer
row,Compound,logD
1,CCOc1nc(NC(=O)C2(NC(=O)c3ccc4c(C5CCCC5)c(-c5ccc(F)cn5)n(C)c4c3)CCC2)ccc1/C=C/C(=O)O,> 4.7
2,CCOc1nc(NC(=O)C(C)(C)NC(=O)c2ccc3c(C4CCCC4)c(-c4ncc(Cl)cn4)n(C)c3c2)cnc1/C=C/C(=O)O,3.3
3,CCOc1nc(NC(=O)C(C)(C)NC(=O)c2ccc3c(C4CCCC4)c(-c4ccc(Cl)cn4)n(C)c3c2)cnc1/C=C/C(=O)O,2.6

# System: not listed separately
# Assay: Half life in cynomolgous monkey at 5 mg/kg, po and 2 mg/kg, iv
# Assay type: ADME, organism-based, Macaca fascicularis
# Conditions: cynomolgus monkey, in vivo
row,Compound,half-life
1,CCOc1nc(NC(=O)C2(NC(=O)c3ccc4c(C5CCCC5)c(-c5ccc(F)cn5)n(C)c4c3)CCC2)ccc1/C=C/C(=O)O,2.3 h

# System: not listed separately
# Assay: Bioavailability in cynomolgous monkey at 5 mg/kg, po and 2 mg/kg, iv
# Assay type: ADME, organism-based, Macaca fascicularis
# Conditions: cynomolgus monkey, in vivo
row,Compound,bioavailability
1,CCOc1nc(NC(=O)C2(NC(=O)c3ccc4c(C5CCCC5)c(-c5ccc(F)cn5)n(C)c4c3)CCC2)ccc1/C=C/C(=O)O,44%

# System: not listed separately
# Assay: Half life in cynomolgous monkey liver microsomes at 2 uM
# Assay type: ADME, Macaca fascicularis
# Conditions: cynomolgus monkey
row,Compound,half-life at 2 µM
1,CCOc1nc(NC(=O)C2(NC(=O)c3ccc4c(C5CCCC5)c(-c5ccc(F)cn5)n(C)c4c3)CCC2)ccc1/C=C/C(=O)O,0.433 h

# System: not listed separately
# Assay: Volume of distribution at steady state in cynomolgous monkey at 5 mg/kg, po and 2 mg/kg, iv
# Assay type: ADME, organism-based, Macaca fascicularis
# Conditions: cynomolgus monkey, in vivo, read-out: Vdss
row,Compound,Vd
1,CCOc1nc(NC(=O)C2(NC(=O)c3ccc4c(C5CCCC5)c(-c5ccc(F)cn5)n(C)c4c3)CCC2)ccc1/C=C/C(=O)O,0.47 L/kg

# System: not listed separately
# Assay: Bioavailability in rat at 5 mg/kg, po and 2 mg/kg, iv
# Assay type: ADME, organism-based
# Conditions: in vivo
row,Compound,bioavailability
1,CCOc1nc(NC(=O)C2(NC(=O)c3ccc4c(C5CCCC5)c(-c5ccc(F)cn5)n(C)c4c3)CCC2)ccc1/C=C/C(=O)O,44%

# System: not listed separately
# Assay: Cmax in rat at 5 mg/kg, po and 2 mg/kg, iv
# Assay type: ADME, organism-based
# Conditions: in vivo
row,Compound,Cmax
1,CCOc1nc(NC(=O)C2(NC(=O)c3ccc4c(C5CCCC5)c(-c5ccc(F)cn5)n(C)c4c3)CCC2)ccc1/C=C/C(=O)O,5000 nM

# System: not listed separately
# Assay: AUC in cynomolgous monkey at 5 mg/kg, po and 2 mg/kg, iv
# Assay type: ADME, organism-based, Macaca fascicularis
# Conditions: cynomolgus monkey, plasma
row,Compound,AUC
1,CCOc1nc(NC(=O)C2(NC(=O)c3ccc4c(C5CCCC5)c(-c5ccc(F)cn5)n(C)c4c3)CCC2)ccc1/C=C/C(=O)O,12 µM·h

# System: not listed separately
# Assay: AUC in dog at 5 mg/kg, po and 2 mg/kg, iv
# Assay type: ADME, organism-based, Canis lupus familiaris
# Conditions: plasma
row,Compound,AUC
1,CCOc1nc(NC(=O)C2(NC(=O)c3ccc4c(C5CCCC5)c(-c5ccc(F)cn5)n(C)c4c3)CCC2)ccc1/C=C/C(=O)O,48 µM·h

# System: not listed separately
# Assay: Half life in human liver microsomes at 2 uM
# Assay type: ADME
# Conditions: not given
row,Compound,half-life at 2 µM
1,CCOc1nc(NC(=O)C2(NC(=O)c3ccc4c(C5CCCC5)c(-c5ccc(F)cn5)n(C)c4c3)CCC2)ccc1/C=C/C(=O)O,1.37 h
2,CCOc1nc(NC(=O)C(C)(C)NC(=O)c2ccc3c(C4CCCC4)c(-c4ncc(Cl)cn4)n(C)c3c2)cnc1/C=C/C(=O)O,2.3 h
3,CCOc1nc(NC(=O)C(C)(C)NC(=O)c2ccc3c(C4CCCC4)c(-c4ccc(Cl)cn4)n(C)c3c2)cnc1/C=C/C(=O)O,4.6 h

# Molecular target: Voltage-gated inwardly rectifying potassium channel KCNH2 (Homo sapiens, UniProt Q12809)
# Sequence (Q12809 whole entry): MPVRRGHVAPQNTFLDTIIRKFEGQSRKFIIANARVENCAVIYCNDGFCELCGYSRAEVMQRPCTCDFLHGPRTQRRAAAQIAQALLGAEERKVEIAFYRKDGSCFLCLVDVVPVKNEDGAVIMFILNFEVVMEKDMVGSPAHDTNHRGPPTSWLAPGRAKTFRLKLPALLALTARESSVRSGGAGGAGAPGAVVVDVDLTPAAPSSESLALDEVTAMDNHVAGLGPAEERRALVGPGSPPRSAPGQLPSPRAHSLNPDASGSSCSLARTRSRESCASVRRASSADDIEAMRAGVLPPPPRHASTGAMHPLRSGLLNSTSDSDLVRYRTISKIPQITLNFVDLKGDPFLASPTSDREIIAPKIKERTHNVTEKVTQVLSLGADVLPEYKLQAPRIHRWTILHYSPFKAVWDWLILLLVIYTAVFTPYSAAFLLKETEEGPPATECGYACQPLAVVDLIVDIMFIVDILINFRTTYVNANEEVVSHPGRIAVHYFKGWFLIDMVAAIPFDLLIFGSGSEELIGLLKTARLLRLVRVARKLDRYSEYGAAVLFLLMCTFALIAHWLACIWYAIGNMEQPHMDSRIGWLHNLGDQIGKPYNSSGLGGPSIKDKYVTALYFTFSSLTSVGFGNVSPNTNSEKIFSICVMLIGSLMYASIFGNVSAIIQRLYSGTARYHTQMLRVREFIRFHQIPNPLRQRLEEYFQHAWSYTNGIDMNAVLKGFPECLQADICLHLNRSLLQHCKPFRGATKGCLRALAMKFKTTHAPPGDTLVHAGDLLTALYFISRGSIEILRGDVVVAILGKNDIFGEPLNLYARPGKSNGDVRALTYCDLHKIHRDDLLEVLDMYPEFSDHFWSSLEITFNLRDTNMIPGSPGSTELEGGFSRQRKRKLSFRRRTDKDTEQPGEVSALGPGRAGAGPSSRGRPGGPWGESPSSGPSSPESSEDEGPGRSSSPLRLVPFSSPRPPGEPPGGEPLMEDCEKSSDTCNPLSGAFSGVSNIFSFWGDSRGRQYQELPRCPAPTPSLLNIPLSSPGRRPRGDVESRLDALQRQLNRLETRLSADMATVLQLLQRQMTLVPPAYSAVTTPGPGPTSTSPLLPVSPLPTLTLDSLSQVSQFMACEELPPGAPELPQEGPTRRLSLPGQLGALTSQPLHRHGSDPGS
# Assay: Inhibition of human ERG channel
# Conditions: not given
row,Compound,IC50
1,CCOc1nc(NC(=O)C2(NC(=O)c3ccc4c(C5CCCC5)c(-c5ccc(F)cn5)n(C)c4c3)CCC2)ccc1/C=C/C(=O)O,2100 nM

# System: not listed separately
# Assay: Plasma concentration in rat at 2 mg/kg, po each in 0.5% Methylcellulose and 0.3% Tween-80 and 1% N-methylpyrrolidone after 2 hrs
# Assay type: ADME, organism-based
# Design: dose 2 mg/kg, route oral
# Conditions: not given
row,Compound,concentration at 2 h
1,CCOc1nc(NC(=O)C(C)(C)NC(=O)c2ccc3c(C4CCCC4)c(-c4ccc(Cl)cn4)n(C)c3c2)cnc1/C=C/C(=O)O,660 nM

# System: not listed separately
# Assay: Lipophilicity, log D of the compound
# Assay type: physicochemical
# Conditions: octanol/water
row,Compound,logD
1,CCOc1nc(NC(=O)C(C)(C)NC(=O)c2ccc3c(C4CCCC4)c(-c4ncc(Cl)cn4)n(C)c3c2)cnc1/C=C/C(=O)O,3.3
2,CCOc1nc(NC(=O)C(C)(C)NC(=O)c2ccc3c(C4CCCC4)c(-c4ccc(Cl)cn4)n(C)c3c2)cnc1/C=C/C(=O)O,2.6

# System: not listed separately
# Assay: Half life in rat at 5 mg/kg, po and 2 mg/kg, iv
# Assay type: ADME, organism-based
# Conditions: in vivo
row,Compound,half-life
1,CCOc1nc(NC(=O)C2(NC(=O)c3ccc4c(C5CCCC5)c(-c5ccc(F)cn5)n(C)c4c3)CCC2)ccc1/C=C/C(=O)O,2.1 h

# System: Hepatitis C virus
# Assay: Antiviral activity against Hepatitis C virus genotype 1a infected in human Huh cells assessed as inhibition of viral replication by RT-PCR-based replicon assay
# Assay type: functional, cell-based, Hepacivirus hominis
# Conditions: subtype 1a
row,Compound,EC50
1,CCOc1nc(NC(=O)C2(NC(=O)c3ccc4c(C5CCCC5)c(-c5ccc(F)cn5)n(C)c4c3)CCC2)ccc1/C=C/C(=O)O,24 nM
2,CCOc1nc(NC(=O)C(C)(C)NC(=O)c2ccc3c(C4CCCC4)c(-c4ncc(Cl)cn4)n(C)c3c2)cnc1/C=C/C(=O)O,21 nM

# System: not listed separately
# Assay: Clearance in cynomolgous monkey at 5 mg/kg, po and 2 mg/kg, iv
# Assay type: ADME, organism-based, Macaca fascicularis
# Conditions: cynomolgus monkey, in vivo
row,Compound,clearance
1,CCOc1nc(NC(=O)C2(NC(=O)c3ccc4c(C5CCCC5)c(-c5ccc(F)cn5)n(C)c4c3)CCC2)ccc1/C=C/C(=O)O,4.6 mL/min/kg

# System: not listed separately
# Assay: Half life in rat liver microsomes at 2 uM
# Assay type: ADME
# Conditions: not given
row,Compound,half-life at 2 µM
1,CCOc1nc(NC(=O)C2(NC(=O)c3ccc4c(C5CCCC5)c(-c5ccc(F)cn5)n(C)c4c3)CCC2)ccc1/C=C/C(=O)O,0.95 h
2,CCOc1nc(NC(=O)C(C)(C)NC(=O)c2ccc3c(C4CCCC4)c(-c4ncc(Cl)cn4)n(C)c3c2)cnc1/C=C/C(=O)O,1.82 h
3,CCOc1nc(NC(=O)C(C)(C)NC(=O)c2ccc3c(C4CCCC4)c(-c4ccc(Cl)cn4)n(C)c3c2)cnc1/C=C/C(=O)O,> 5 h

# System: not listed separately
# Assay: Cmax in cynomolgous monkey at 5 mg/kg, po and 2 mg/kg, iv
# Assay type: ADME, organism-based, Macaca fascicularis
# Conditions: cynomolgus monkey, in vivo
row,Compound,Cmax
1,CCOc1nc(NC(=O)C2(NC(=O)c3ccc4c(C5CCCC5)c(-c5ccc(F)cn5)n(C)c4c3)CCC2)ccc1/C=C/C(=O)O,3800 nM

# System: not listed separately
# Assay: Permeability from apical to basolateral side of human Caco2 cells
# Assay type: ADME, cell-based
# Conditions: Caco-2, read-out: permeability
row,Compound,Papp A→B
1,CCOc1nc(NC(=O)C2(NC(=O)c3ccc4c(C5CCCC5)c(-c5ccc(F)cn5)n(C)c4c3)CCC2)ccc1/C=C/C(=O)O,14 ×10⁻⁶ cm/s

# System: not listed separately
# Assay: Cmax in dog at 5 mg/kg, po and 2 mg/kg, iv
# Assay type: ADME, organism-based, Canis lupus familiaris
# Conditions: in vivo
row,Compound,Cmax
1,CCOc1nc(NC(=O)C2(NC(=O)c3ccc4c(C5CCCC5)c(-c5ccc(F)cn5)n(C)c4c3)CCC2)ccc1/C=C/C(=O)O,8600 nM
